Source: US20230027620A1, “PENTAPEPTIDE AND METHODS OF USE THEREOF” (THE BOARD OF TRUSTEES OF THE UNIVERSITY OF ILLINOIS, priority 2019, published 2023)

Legend:
HCLE cells = experiment: In vitro scratch assay, HCLE cells; type: cell-based, Human
Protocol: Cell Culture. Human corneal limbal epithelial (HCLE) cells were cultured in keratinocyte-serum free medium (K-SFM; ThermoScientific, Waltham, Mass.) supplemented with 0.2 ng/mL rhEGF (ThermoScientific, Waltham, Mass.), bovine pituitary extract (ThermoScientific, Waltham, Mass.) and 1% Amphotericin B (ThermoScientific, Waltham, Mass.). Standard cell culture conditions (37° C., 5% CO2, >95% humidity) were used during routine passages. The culture medium was replaced every 48 hours after seeding.
In Vitro Scratch Assay. HCE, HCLE, HELA and MCF-7 cells were cultured in a 24-well plate at 2.5×10^5 (cells/well) seeding density, and were grown to confluence on a 24-well plate. Subsequently, a straight-line scratch mark was made with a sterile P200 pipette tip. […] The wound area at each time-point was measured using Image J software (Image J 1.47v, NIH, Thornwood, Bethesda, Md.). Relative wound closure was calculated by dividing the closure of the treated wound by that of the untreated wound. […]
A cell sprouting assay using HCE cells embedded as a spot in growth factor reduced solubilized basement membrane sold under the tradename MATRIGEL® (Corning Life Sciences, Tewksbury, Mass.) was used to determine if HST5 could promote epithelial cell migration. […] Time-lapse microscopy was performed and wound areas were analyzed at different time points. […]

pERK1/2 = experiment: Western blot for pERK1/2 after wounding; type: cell-based; conditions: wounded cells, compared with wounding alone
Protocol: Western Blot. Western blot was performed following standard methods. Protein lysate (20 μg) was boiled in NuPAGE™ LDS sample buffer (Invitrogen, Carlsbad, Calif.) for 10 minutes and then subjected to electrophoresis on 12% NuPAGE™ Bis-Tris gels (Invitrogen, Carlsbad, Calif.), followed by transfer to nitrocellulose membranes (Amersham Protran, GE Healthcare, Pittsburgh, Pa.). Membranes were then blocked with Tris-buffered saline containing 3% nonfat dry milk for 1 hour and incubated with primary antibody against pERK1/2 (Cell Signaling, Danver, Mass.) (1:1000) overnight at 4° C. After washing in 0.05% Tris-buffered saline containing 0.05% polysorbate 20, membranes were then incubated for 1 hour with goat anti-rabbit-HRP (BD Biosciences, San Jose, Calif.) (1:2000) as the secondary antibody. The membranes were developed using X-ray film and ECL Pro solution (PerkinElmer, Waltham, Mass.). Beta-actin was used as an internal control.
The level of activation/phosphorylation of ERK with and without wounding and with and without Hst5 application were investigated to determine whether the cellular signaling pathways underpinning the pro-migratory effects of Hst5 were similar to those of Hst1 in other epithelial cell types. Wounding causes an increased in phosphorylated form of ERK1/2 (p-ERK1/2). […]

[1] = system: corneal epithelial wound in C57BLl6J mice; experiment: Murine corneal epithelial injury (wound healing) model; type: in vivo
Protocol: Wounded areas were treated with Hst5, SHRGY (SEQ ID NO:2) or SP1 peptides (n=7 for each group), each tested at 80 μM concentration. Wound areas at multiple time points were measured using Image J software. […] Statistical significance was determined by a two-way ANOVA with Bonferroni post-hoc test. **P<0.01, ***P<0.001. % Wound area=(Wound area at time X/Wound area at time 0)×100.
Wound Healing Assay. Corneal wounding experiments in mice were conducted in compliance with the Association for Research in Vision and Ophthalmology (ARVO) Statement for the Use of Animals in Ophthalmic and Vision Research. The protocol was approved by the Animal Care & Use Committee of the University of Illinois at Chicago. Twelve-to-nineteen week old C57BLl6J (Jackson Laboratory, Bar Harbor, Me.) mice were anesthetized with intraperitoneal injection of ketamine (100 mg/kg) and xylazine (5 mg/kg). After applying two drops of topical 0.5% proparacaine, a 2.0-mm area of the central epithelium was demarcated using 2-mm disposable biopsy punch and removed by an AlgerBrush II (The Alger Company, Lago Vista, Tex.). In the treatment (n=7) or the control (n=7) group, Histatin=5 (80 μM), SHRGY peptide (SEQ ID NO:2; 80 μM), or SP1 (80 μM) was applied to the cornea three times a day. At 0, 18 and 24 hours, the corneas were stained with fluorescein (FUL-GLO® Fluorescein Sodium ophthalmic strips, Akorn, Lake forest, Ill.) and photographed using a NIKON FS-2 photo-slit lamp with a NIKON D200 camera (Melville, N.Y.). Wound sizes were compared with the baseline for each mouse and the percentages of wound closure was measured using Image J software.
For immunofluorescence, excised whole mouse eye was snap frozen in optimal cutting temperature compound (OCT; (Fisher Healthcare, Galderma, Calif.). The frozen tissues were cut into 10 μm cryosections (ThermoScientific NX50 Cryomicrotome, Waltham, Mass.) and subsequently were mounted on Superfrost plus slides (Thermofisher, Waltham, Mass.). Slides were fixed for 20 minutes in methanol, washed several times with PBS, stained with DAPI for 2 minutes, and further washed with PBS and deionized water. The slides were then mounted in Fluoro gel with Tris buffer (Electron Microscopy Sciences, Hattfield, Pa.) and observed under a confocal microscope (Zeiss LSM 710 Confocal Microscope, Oberkochen, Germany) using a 10× objective.
Thus, Hst5 and SHRGY (SEQ ID NO:2)-containing peptides can enhance wound healing in a well-vetted model of murine corneal epithelial injury.

For DSHAKRHHGYKRKFHEKHHSHRGY [Hst5], the “rates of in vitro scratch assay closure” value (HCLE cells; 20, 50, 80 and 100 μM, compared with untreated control) was “dose-dependent increase in rates of in vitro scratch assay closure”, the “concentration of most significant increase in scratch closure rates” value (HCLE cells; tested at 20, 50, 80 and 100 μM) was 50 µM and the “pERK1/2 levels (Western blot)” value (pERK1/2) was “further increased”. The “% remaining corneal wound area compared to baseline” value ([1]; 80 μM, 18 hours and 24 hours, compared to SP1, n=7) was “statistically significant improvement”, the “corneal wound size, histologic analysis (DAPI cross sections)” value ([1]; compared to SP1-treated controls) was “reductions in corneal wound size” and the “corneal wound closure rates” value ([1]; topical, 80 μM, three times a day, vs scrambled peptide control SP1) was “significant improvement in corneal wound closure rates”.
